Measurements taken from publication PMC11124822, “Discovery and Anticancer Screening of Novel Oxindole-Based Derivative Bearing Pyridyl Group as Potent and Selective Dual FLT3/CDK2 Kinase Inhibitor” (Pharmaceuticals, 2024).

Tests used:
LOX IMVI = test: NCI-60 antiproliferative screen (SRB); type: cell-based, human; settings: Homo sapiens; 10 µM single dose, 48 h; LOX IMVI (Melanoma); read-out: Growth inhibition (%)
NCI-H23 = test: NCI-60 antiproliferative screen (SRB); type: cell-based, human; settings: Homo sapiens; 10 µM single dose, 48 h; NCI-H23 (NSCLC); read-out: Growth inhibition (%)
NCI-H460 = test: NCI-60 antiproliferative screen (SRB); type: cell-based, human; settings: Homo sapiens; 10 µM single dose, 48 h; NCI-H460 (NSCLC); read-out: Growth inhibition (%)
CCRF-CEM = test: NCI-60 antiproliferative screen (SRB); type: cell-based, human; settings: Homo sapiens; 10 µM single dose, 48 h; CCRF-CEM (Leukemia); read-out: Growth inhibition (%)
NCI-H226 = test: NCI-60 antiproliferative screen (SRB); type: cell-based, human; settings: Homo sapiens; 10 µM single dose, 48 h; NCI-H226 (NSCLC); read-out: Growth inhibition (%)
SK-MEL-5 = test: NCI-60 antiproliferative screen (SRB); type: cell-based, human; settings: Homo sapiens; 10 µM single dose, 48 h; SK-MEL-5 (Melanoma); read-out: Growth inhibition (%)
T-47D = test: NCI-60 antiproliferative screen (SRB); type: cell-based, human; settings: Homo sapiens, T47D; 10 µM single dose, 48 h; T-47D (Breast); read-out: Growth inhibition (%)
SN12C = test: NCI-60 antiproliferative screen (SRB); type: cell-based, human; settings: Homo sapiens; 10 µM single dose, 48 h; SN12C (Renal); read-out: Growth inhibition (%)
MDA-MB-435 = test: NCI-60 antiproliferative screen (SRB); type: cell-based, human; settings: Homo sapiens; 10 µM single dose, 48 h; MDA-MB-435 (Melanoma); read-out: Growth inhibition (%)
HS 578T = test: NCI-60 antiproliferative screen (SRB); type: cell-based, human; settings: Homo sapiens; 10 µM single dose, 48 h; HS 578T (Breast); read-out: Growth inhibition (%)
K-562 = test: NCI-60 antiproliferative screen (SRB); type: cell-based, human; settings: Homo sapiens, K562; 10 µM single dose, 48 h; K-562 (Leukemia); read-out: Growth inhibition (%)
HOP-92 = test: NCI-60 antiproliferative screen (SRB); type: cell-based, human; settings: Homo sapiens; 10 µM single dose, 48 h; HOP-92 (NSCLC); read-out: Growth inhibition (%)
ACHN = test: NCI-60 antiproliferative screen (SRB); type: cell-based, human; settings: Homo sapiens; 10 µM single dose, 48 h; ACHN (Renal); read-out: Growth inhibition (%)
EKVX = test: NCI-60 antiproliferative screen (SRB); type: cell-based, human; settings: Homo sapiens; 10 µM single dose, 48 h; EKVX (NSCLC); read-out: Growth inhibition (%)
SK-OV-3 = test: NCI-60 antiproliferative screen (SRB); type: cell-based, human; settings: Homo sapiens; 10 µM single dose, 48 h; SK-OV-3 (Ovarian); read-out: Growth inhibition (%)
HT29 = test: NCI-60 antiproliferative screen (SRB); type: cell-based, human; settings: Homo sapiens, HT-29; 10 µM single dose, 48 h; HT29 (Colon); read-out: Growth inhibition (%)
BT-549 = test: NCI-60 antiproliferative screen (SRB); type: cell-based, human; settings: Homo sapiens; 10 µM single dose, 48 h; BT-549 (Breast); read-out: Growth inhibition (%)
IGROV1 = test: NCI-60 antiproliferative screen (SRB); type: cell-based, human; settings: Homo sapiens, IGROV-1; 10 µM single dose, 48 h; IGROV1 (Ovarian); read-out: Growth inhibition (%)
HL-60(TB) = test: NCI-60 antiproliferative screen (SRB); type: cell-based, human; settings: Homo sapiens; 10 µM single dose, 48 h; HL-60(TB) (Leukemia); read-out: Growth inhibition (%)
HCT-15 = test: NCI-60 antiproliferative screen (SRB); type: cell-based, human; settings: Homo sapiens; 10 µM single dose, 48 h; HCT-15 (Colon); read-out: Growth inhibition (%)
UACC-62 = test: NCI-60 antiproliferative screen (SRB); type: cell-based, human; settings: Homo sapiens; 10 µM single dose, 48 h; UACC-62 (Melanoma); read-out: Growth inhibition (%)
NCI-H322M = test: NCI-60 antiproliferative screen (SRB); type: cell-based, human; settings: Homo sapiens; 10 µM single dose, 48 h; NCI-H322M (NSCLC); read-out: Growth inhibition (%)
SF-268 = test: NCI-60 antiproliferative screen (SRB); type: cell-based, human; settings: Homo sapiens; 10 µM single dose, 48 h; SF-268 (CNS); read-out: Growth inhibition (%)
COLO 205 = test: NCI-60 antiproliferative screen (SRB); type: cell-based, human; settings: Homo sapiens; 10 µM single dose, 48 h; COLO 205 (Colon); read-out: Growth inhibition (%)
786-0 = test: NCI-60 antiproliferative screen (SRB); type: cell-based, human; settings: Homo sapiens; 10 µM single dose, 48 h; 786-0 (Renal); read-out: Growth inhibition (%)
TK-10 = test: NCI-60 antiproliferative screen (SRB); type: cell-based, human; settings: Homo sapiens; 10 µM single dose, 48 h; TK-10 (Renal); read-out: Growth inhibition (%)
A549/ATCC = test: NCI-60 antiproliferative screen (SRB); type: cell-based, human; settings: Homo sapiens; 10 µM single dose, 48 h; A549/ATCC (NSCLC); read-out: Growth inhibition (%)
SNB-19 = test: NCI-60 antiproliferative screen (SRB); type: cell-based, human; settings: Homo sapiens; 10 µM single dose, 48 h; SNB-19 (CNS); read-out: Growth inhibition (%)
[1] = tested on: NCI-60 human cancer cell lines; test: NCI-60 screen, full panel summary; type: cell-based; settings: 10 µM single dose
Method: In a comprehensive test, compounds were assayed at a single dose concentration (10^−5 M) in the full panel of NCI-60 cancer cell lines.

O=C1Nc2ccc(Cl)cc2C1=Cc1ccc(OCc2ccccn2)cc1 (mixture of isomers) [Compound 5g, (E/Z)-5-Chloro-3-[4-(pyridin-2-ylmethoxy)benzylidene] indolin-2-one] showed an inhibition at 10 µM (LOX IMVI) of 43.5%, an inhibition at 10 µM (NCI-H23) of 37.8% and an inhibition at 10 µM (NCI-H460) of 84%. For the same compound, the inhibition at 10 µM (CCRF-CEM) was 16.8%, the inhibition at 10 µM (NCI-H226) was 98.7% and the melting point was 219 to 220 °C. It also gave an inhibition at 10 µM (SK-MEL-5) of 10.5%, an inhibition at 10 µM (T-47D) of 31% and an inhibition at 10 µM (SN12C) of 55.5%. It also gave an inhibition at 10 µM (MDA-MB-435) of 23.1%, an inhibition at 10 µM (HS 578T) of 85.2% and an inhibition at 10 µM (K-562) of 49%. It also gave an inhibition at 10 µM (HOP-92) of 27.9%, an inhibition at 10 µM (ACHN) of 43% and an inhibition at 10 µM (EKVX) of 34.3%. For the same compound, the inhibition at 10 µM (SK-OV-3) was 10.8%, the inhibition at 10 µM (HT29) was 32.5% and the inhibition at 10 µM (BT-549) was 21.2%. For the same compound, the inhibition at 10 µM (IGROV1) was 45.4%, the inhibition at 10 µM (HL-60(TB)) was 15% and the inhibition at 10 µM (HCT-15) was 64.3%. It also gave an inhibition at 10 µM (UACC-62) of 33.3%, an inhibition at 10 µM (NCI-H322M) of 35.8% and an inhibition at 10 µM (SF-268) of 20.7%. For the same compound, the inhibition at 10 µM (COLO 205) was 10.9%, the inhibition at 10 µM (786-0) was 74.3% and the inhibition at 10 µM (TK-10) was 9.89%. The inhibition at 10 µM (A549/ATCC) was 35.6%, the inhibition at 10 µM (SNB-19) was 49.3% and the “Positive Cytostatic Effect (cell lines with percent growth from 0 to 50 / total number of cell lines)” value [1] was 17/59. The “Positive Cytotoxic Effect (cell lines with percent growth of <0 / total number of cell lines)” value [1] was 1/59, the “Sensitive/Total Cell Lines” value [1] was 18/59 and the “The Most Sensitive Cell Line” value [1] was “OVCAR-4”. The “number of cell lines with cytostatic effects” value [1] was 17, the “number of cell lines with cytotoxic effects” value [1] was 1 and the “Mean Growth Percent” value ([1]; all NCI-60 cell lines) was 38.63.
